Blank lines part the entries; values can stand above or below the compound they belong to.
System: 156681-154-R-J1-PDC complex spheroid viability
Experiment: Anticancer human tumor 156681-154-R-J1-PDC patient-derived melanoma cell line growth inhibition [CLK]
Details: for IC50: curve of first compound; for viability, T/C: stronger effect = lower value
How it was run: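 Patient-derived tumor cells grown as complex spheroids with HUVEC endothelial cells and mesenchymal stem cells, treated with drug combinations. Concentrations descend in half-log steps from near clinical Cmax, or from 10 microM if Cmax unknown.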
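Also: spheroids exposed to the agents for seven days.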
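For viability, T/C in this document: 100% = DMSO vehicle control viability.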

- IC50 (second compound 0.0316 µM): 61.9 nM
- IC50 (second compound 0.1 µM): < 9.49 nM
- IC50 (second compound 0.316 µM): 33.2 nM
- IC50 (second compound 1 µM): < 9.49 nM
- IC50 (second compound 3.16 µM): < 9.49 nM
- IC50 (second compound 10 µM): < 9.49 nM
Structure (SMILES): NC(=O)C(=Cn1cnc(-c2cc(C(F)(F)F)cc(C(F)(F)F)c2)n1)c1cncnc1 + CNC(=O)c1ccc(Nc2nc(OC3CCCC3)c3c(-c4ccc5nc(C)oc5c4)c[nH]c3n2)c(OC)c1
- viability, T/C (second compound 0.0316 µM, first compound 0.00949 µM): 64.7%
- viability, T/C (second compound 0.0316 µM, first compound 0.03 µM): 81%
- viability, T/C (second compound 0.0316 µM, first compound 0.0949 µM): 36.6%
- viability, T/C (second compound 0.0316 µM, first compound 0.3 µM): 14%
- viability, T/C (second compound 0.0316 µM, first compound 0.949 µM): 6.14%
- viability, T/C (second compound 0.0316 µM, first compound 3 µM): 3.87%
- viability, T/C (second compound 0.1 µM, first compound 0.00949 µM): 37.9%
- viability, T/C (second compound 0.1 µM, first compound 0.03 µM): 52.5%
- viability, T/C (second compound 0.1 µM, first compound 0.0949 µM): 33%
- viability, T/C (second compound 0.1 µM, first compound 0.3 µM): 18.4%
- viability, T/C (second compound 0.1 µM, first compound 0.949 µM): 6.15%
- viability, T/C (second compound 0.1 µM, first compound 3 µM): 4.5%
- viability, T/C (second compound 0.316 µM, first compound 0.00949 µM): 52.4%
- viability, T/C (second compound 0.316 µM, first compound 0.03 µM): 53.7%
- viability, T/C (second compound 0.316 µM, first compound 0.0949 µM): 23.7%
- viability, T/C (second compound 0.316 µM, first compound 0.3 µM): 7.53%
- viability, T/C (second compound 0.316 µM, first compound 0.949 µM): 3.12%
- viability, T/C (second compound 0.316 µM, first compound 3 µM): 3.35%
- viability, T/C (second compound 1 µM, first compound 0.00949 µM): 40.3%
- viability, T/C (second compound 1 µM, first compound 0.03 µM): 45%
- viability, T/C (second compound 1 µM, first compound 0.0949 µM): 7.8%
- viability, T/C (second compound 1 µM, first compound 0.3 µM): 1.43%
- viability, T/C (second compound 1 µM, first compound 0.949 µM): 1.06%
- viability, T/C (second compound 1 µM, first compound 3 µM): 0.77%
- viability, T/C (second compound 3.16 µM, first compound 0.00949 µM): 37.5%
- viability, T/C (second compound 3.16 µM, first compound 0.03 µM): 22.1%
- viability, T/C (second compound 3.16 µM, first compound 0.0949 µM): 4.21%
- viability, T/C (second compound 3.16 µM, first compound 0.3 µM): 1.37%
- viability, T/C (second compound 3.16 µM, first compound 0.949 µM): 1.03%
- viability, T/C (second compound 3.16 µM, first compound 3 µM): 0.18%
- viability, T/C (second compound 10 µM, first compound 0.00949 µM): 28.5%
- viability, T/C (second compound 10 µM, first compound 0.03 µM): 24.2%
- viability, T/C (second compound 10 µM, first compound 0.0949 µM): 3.92%
- viability, T/C (second compound 10 µM, first compound 0.3 µM): 1%
- viability, T/C (second compound 10 µM, first compound 0.949 µM): 1.5%
- viability, T/C (second compound 10 µM, first compound 3 µM): 0.26%

- IC50 (second compound 0.0316 µM): 572 nM
- IC50 (second compound 0.1 µM): 293 nM
- IC50 (second compound 0.316 µM): 337 nM
- IC50 (second compound 1 µM): 141 nM
- IC50 (second compound 3.16 µM): 67.6 nM
- IC50 (second compound 10 µM): 50.7 nM
Structure (SMILES): Nc1ccccc1NC(=O)c1ccc(CNC(=O)OCc2cccnc2)cc1 + CNC(=O)c1ccc(Nc2nc(OC3CCCC3)c3c(-c4ccc5nc(C)oc5c4)c[nH]c3n2)c(OC)c1
- viability, T/C (second compound 0.0316 µM, first compound 0.0316 µM): 115%
- viability, T/C (second compound 0.0316 µM, first compound 0.1 µM): 91.2%
- viability, T/C (second compound 0.0316 µM, first compound 0.316 µM): 64.9%
- viability, T/C (second compound 0.0316 µM, first compound 1 µM): 42%
- viability, T/C (second compound 0.0316 µM, first compound 3.16 µM): 3.29%
- viability, T/C (second compound 0.0316 µM, first compound 10 µM): 1.7%
- viability, T/C (second compound 0.1 µM, first compound 0.0316 µM): 70%
- viability, T/C (second compound 0.1 µM, first compound 0.1 µM): 66.3%
- viability, T/C (second compound 0.1 µM, first compound 0.316 µM): 45.7%
- viability, T/C (second compound 0.1 µM, first compound 1 µM): 30.2%
- viability, T/C (second compound 0.1 µM, first compound 3.16 µM): 3.46%
- viability, T/C (second compound 0.1 µM, first compound 10 µM): 5.63%
- viability, T/C (second compound 0.316 µM, first compound 0.0316 µM): 58.1%
- viability, T/C (second compound 0.316 µM, first compound 0.1 µM): 59.4%
- viability, T/C (second compound 0.316 µM, first compound 0.316 µM): 46%
- viability, T/C (second compound 0.316 µM, first compound 1 µM): 34.6%
- viability, T/C (second compound 0.316 µM, first compound 3.16 µM): 4.74%
- viability, T/C (second compound 0.316 µM, first compound 10 µM): 8.02%
- viability, T/C (second compound 1 µM, first compound 0.0316 µM): 64.6%
- viability, T/C (second compound 1 µM, first compound 0.1 µM): 50.3%
- viability, T/C (second compound 1 µM, first compound 0.316 µM): 41.3%
- viability, T/C (second compound 1 µM, first compound 1 µM): 28.1%
- viability, T/C (second compound 1 µM, first compound 3.16 µM): 4.08%
- viability, T/C (second compound 1 µM, first compound 10 µM): 0.99%
- viability, T/C (second compound 3.16 µM, first compound 0.0316 µM): 49.8%
- viability, T/C (second compound 3.16 µM, first compound 0.1 µM): 53.3%
- viability, T/C (second compound 3.16 µM, first compound 0.316 µM): 35.8%
- viability, T/C (second compound 3.16 µM, first compound 1 µM): 23.8%
- viability, T/C (second compound 3.16 µM, first compound 3.16 µM): 3.27%
- viability, T/C (second compound 3.16 µM, first compound 10 µM): 0.11%
- viability, T/C (second compound 10 µM, first compound 0.0316 µM): 57.1%
- viability, T/C (second compound 10 µM, first compound 0.1 µM): 38.4%
- viability, T/C (second compound 10 µM, first compound 0.316 µM): 29.6%
- viability, T/C (second compound 10 µM, first compound 1 µM): 22.6%
- viability, T/C (second compound 10 µM, first compound 3.16 µM): 2.77%
- viability, T/C (second compound 10 µM, first compound 10 µM): 0.3%
